Assay results taken from the NIST ThermoML archive (doi:10.1016/j.jct.2016.07.021).
Numbers after ± are expanded uncertainties.

Experiment: activity coefficient (dimensionless); of the first substance listed, at infinite dilution; xn = mol fraction of the nth substance listed
Conditions: 101.33 kPa, Liquid, Chromatography, x1 = 0

Structure (SMILES)	activity coefficient (313.15 K)	activity coefficient (323.15 K)	activity coefficient (333.15 K)	activity coefficient (343.15 K)	activity coefficient (353.15 K)
Cc1ccccc1C [1,2-dimethylbenzene] + CCCCCCn1cc[n+](C)c1C.O=S(=O)([N-]S(=O)(=O)C(F)(F)F)C(F)(F)F	1.17 ± 0.12	1.19 ± 0.12	1.21 ± 0.12	1.22 ± 0.13	1.24 ± 0.13
Cc1cccc(C)c1 [1,3-dimethylbenzene] + CCCCCCn1cc[n+](C)c1C.O=S(=O)([N-]S(=O)(=O)C(F)(F)F)C(F)(F)F	1.34 ± 0.14	1.38 ± 0.14	1.41 ± 0.15	1.44 ± 0.15	1.47 ± 0.15
Cc1ccc(C)cc1 [1,4-dimethylbenzene] + CCCCCCn1cc[n+](C)c1C.O=S(=O)([N-]S(=O)(=O)C(F)(F)F)C(F)(F)F	1.39 ± 0.14	1.42 ± 0.15	1.46 ± 0.15	1.5 ± 0.16	1.55 ± 0.16
CC(C)=O [acetone] + CCCCCCn1cc[n+](C)c1C.O=S(=O)([N-]S(=O)(=O)C(F)(F)F)C(F)(F)F	0.4 ± 0.05	0.42 ± 0.05	0.43 ± 0.05	0.45 ± 0.05	0.46 ± 0.05
CC#N [acetonitrile] + CCCCCCn1cc[n+](C)c1C.O=S(=O)([N-]S(=O)(=O)C(F)(F)F)C(F)(F)F	0.45 ± 0.05	0.46 ± 0.05	0.47 ± 0.05	0.48 ± 0.05	0.48 ± 0.05
c1ccccc1 [benzene] + CCCCCCn1cc[n+](C)c1C.O=S(=O)([N-]S(=O)(=O)C(F)(F)F)C(F)(F)F	0.72 ± 0.08	0.72 ± 0.08	0.74 ± 0.08	0.75 ± 0.08	0.76 ± 0.08
C1CCCCC1 [cyclohexane] + CCCCCCn1cc[n+](C)c1C.O=S(=O)([N-]S(=O)(=O)C(F)(F)F)C(F)(F)F	5.33 ± 0.56	5.14 ± 0.54	4.99 ± 0.52	4.88 ± 0.51	4.74 ± 0.5
C1=CCCCC1 [cyclohexene] + CCCCCCn1cc[n+](C)c1C.O=S(=O)([N-]S(=O)(=O)C(F)(F)F)C(F)(F)F	3.36 ± 0.35	3.29 ± 0.35	3.19 ± 0.34	3.06 ± 0.32	2.93 ± 0.31
CCCCCCCCCC [decane] + CCCCCCn1cc[n+](C)c1C.O=S(=O)([N-]S(=O)(=O)C(F)(F)F)C(F)(F)F	26.8 ± 2.8	25 ± 2.6	23.3 ± 2.5	21.6 ± 2.3	20.1 ± 2.1
ClCCl [dichloromethane] + CCCCCCn1cc[n+](C)c1C.O=S(=O)([N-]S(=O)(=O)C(F)(F)F)C(F)(F)F	0.74 ± 0.08	0.73 ± 0.08	0.72 ± 0.08	0.71 ± 0.07	0.7 ± 0.07
CCOC(C)=O [ethyl acetate] + CCCCCCn1cc[n+](C)c1C.O=S(=O)([N-]S(=O)(=O)C(F)(F)F)C(F)(F)F	0.83 ± 0.09	0.86 ± 0.09	0.88 ± 0.09	0.91 ± 0.09	0.93 ± 0.09
CCc1ccccc1 [ethylbenzene] + CCCCCCn1cc[n+](C)c1C.O=S(=O)([N-]S(=O)(=O)C(F)(F)F)C(F)(F)F	1.34 ± 0.14	1.36 ± 0.14	1.38 ± 0.14	1.4 ± 0.14	1.42 ± 0.15
CCCCCCC [heptane] + CCCCCCn1cc[n+](C)c1C.O=S(=O)([N-]S(=O)(=O)C(F)(F)F)C(F)(F)F	10.2 ± 1.1	9.79 ± 1	9.47 ± 1	9.2 ± 0.97	8.83 ± 0.93
CCCCCC [hexane] + CCCCCCn1cc[n+](C)c1C.O=S(=O)([N-]S(=O)(=O)C(F)(F)F)C(F)(F)F	7.6 ± 0.8	7.41 ± 0.78	7.16 ± 0.75	6.96 ± 0.73	6.78 ± 0.71
CC1CCCCC1 [methylcyclohexane] + CCCCCCn1cc[n+](C)c1C.O=S(=O)([N-]S(=O)(=O)C(F)(F)F)C(F)(F)F	6.48 ± 0.68	6.26 ± 0.66	6.06 ± 0.64	5.81 ± 0.61	5.62 ± 0.59
CCCCCCCCC [nonane] + CCCCCCn1cc[n+](C)c1C.O=S(=O)([N-]S(=O)(=O)C(F)(F)F)C(F)(F)F	21.5 ± 2.3	19.8 ± 2.1	18.1 ± 1.9	16.6 ± 1.7	15.1 ± 1.6
CCCCCCCC [octane] + CCCCCCn1cc[n+](C)c1C.O=S(=O)([N-]S(=O)(=O)C(F)(F)F)C(F)(F)F	12.8 ± 1.4	11.7 ± 1.2	10.6 ± 1.1	9.82 ± 1	9.16 ± 0.96
CCCCC [pentane] + CCCCCCn1cc[n+](C)c1C.O=S(=O)([N-]S(=O)(=O)C(F)(F)F)C(F)(F)F	5.64 ± 0.59	5.55 ± 0.58	5.45 ± 0.57	5.33 ± 0.56	5.21 ± 0.55
ClC(Cl)(Cl)Cl [tetrachloromethane] + CCCCCCn1cc[n+](C)c1C.O=S(=O)([N-]S(=O)(=O)C(F)(F)F)C(F)(F)F	2.31 ± 0.24	2.26 ± 0.24	2.19 ± 0.23	2.15 ± 0.23	2.09 ± 0.22
C1CCOC1 [tetrahydrofuran] + CCCCCCn1cc[n+](C)c1C.O=S(=O)([N-]S(=O)(=O)C(F)(F)F)C(F)(F)F	0.5 ± 0.06	0.51 ± 0.06	0.53 ± 0.06	0.55 ± 0.06	0.58 ± 0.06
Cc1ccccc1 [toluene] + CCCCCCn1cc[n+](C)c1C.O=S(=O)([N-]S(=O)(=O)C(F)(F)F)C(F)(F)F	0.96 ± 0.1	0.99 ± 0.1	1.01 ± 0.1	1.03 ± 0.1	1.05 ± 0.11
ClC(Cl)Cl [trichloromethane] + CCCCCCn1cc[n+](C)c1C.O=S(=O)([N-]S(=O)(=O)C(F)(F)F)C(F)(F)F	0.77 ± 0.08	0.78 ± 0.08	0.79 ± 0.08	0.81 ± 0.08	0.82 ± 0.08
